One data set relates to rat leukemia L 5222. The data set can be described thus: Therapy test using the model of rat leukemia L 5222. Type of data set: in vivo. To be noted: for optimal dose: L 5222. The text has this:
In the therapy test using the model of rat leukemia L 5222 (Ivankovic, Zeller, Leukamie L 5222 des Rattenstammes BD IX. Eine durch Athylnitrosoharnstoff induzierte monozytar-myeloische, transplantierbare Form fur zytochemische und chemotherapeutische Studien [Leukemia L 5222 of Rats of Stock BD IX. A monocytic-myeloid, transplantable form induced by ethylnitrosourea for cytochemical and chemotherapeutic studies]. Blut [Blood], 28; 288-292, 1974 and Zeller, Ivankovic, Schmahl, Cancer Research, Vol. 35, 1168-1174, 1975), the cortisone conjugate has good activity. At 176 mg/kg, the total median (replicated experiment!) at 65 days was 3 cured animals out of 6, while with CNU alanine in an equimolar dose with cortisone no cures were attained, with a median survival time of 20 days.

Data set [1] can be described thus: Toxicity of the compounds (LD50). In kind it is in vivo. To be noted: for LD50 at 2160 h: in vivo, period of observation: 90 days (printed with the cortisone ester). An excerpt:
Data on the toxicity of the compounds

For a further data set, the target named is estrogen receptor (Homo sapiens, UniProt P03372). The data set can be described thus: biochemical. To be noted: for affinity relative to estradiol (100%): parameter of 50% bonding inhibition of 3H-tagged estradiol. The text has this: The estrogen-linked compounds were subjected to an estrogen receptor test (Lebercytosol) (Kranzfelder, Schneider, von Angerer, Schoneberger, J. Cancer Research Chim. Oncol. 97, 167-186 (1980)).

Data on 4 molecules can be found in patent US4609496A, “Steroid esters of N-(2-halogenoethyl)-N-nitroso-carbamoyl-amino acids and peptides thereof, as well as methods for preparing them” (Stiftung Deutsches Krebsforshungszentrum, priority 1982, dated 1986).

Structures are written as SMILES. pIC50: −log10 of the molar value.

Chain of estrogen receptor (P03372 whole entry): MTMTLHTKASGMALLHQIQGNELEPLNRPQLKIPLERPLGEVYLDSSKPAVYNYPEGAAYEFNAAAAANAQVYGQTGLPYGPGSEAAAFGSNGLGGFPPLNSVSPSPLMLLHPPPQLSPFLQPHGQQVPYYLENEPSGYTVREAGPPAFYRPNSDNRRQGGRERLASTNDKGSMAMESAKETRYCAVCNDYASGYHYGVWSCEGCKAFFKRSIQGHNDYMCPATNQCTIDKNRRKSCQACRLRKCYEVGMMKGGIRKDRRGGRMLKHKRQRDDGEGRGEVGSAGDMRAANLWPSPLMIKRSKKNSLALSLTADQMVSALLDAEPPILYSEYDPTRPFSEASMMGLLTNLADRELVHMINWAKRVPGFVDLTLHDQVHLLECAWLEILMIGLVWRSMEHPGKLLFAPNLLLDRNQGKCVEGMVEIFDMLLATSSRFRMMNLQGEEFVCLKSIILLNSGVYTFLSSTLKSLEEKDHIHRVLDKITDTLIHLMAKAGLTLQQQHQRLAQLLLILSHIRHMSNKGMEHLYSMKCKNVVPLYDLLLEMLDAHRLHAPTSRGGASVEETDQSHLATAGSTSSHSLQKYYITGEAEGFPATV

As to `CC(NC(=O)N(CCCl)N=O)C(=O)OCC(=O)C1(O)CCC2C3CCC4=CC(=O)CCC4(C)C3C(=O)CC21C` [N-(2-chloroethyl)-N-nitroso-carbamoyl-L-alanine-cortisone-21-ester], the cured animals in the data set on rat leukemia L 5222 (176 mg/kg) is given as 3 cured animals out of 6. In addition, the “total median (survival)” value in the data set on rat leukemia L 5222 (176 mg/kg, replicated experiment) is given as 65 days. For the same molecule, the “activity in therapy test” value in the data set on rat leukemia L 5222 (rat leukemia L 5222) was “good activity”. Moreover, in data set [1], the LD50 – broadly, the dose expected to kill half of the subjects tested – at 2160 h is 220 to 280 mg/kg. In addition, the “reduction in toxicity by linking CNU alanine with cortisone” value in data set [1] (relative to CNU alanine) is recorded as “sharp reduction in toxicity (by approximately threefold)”.
The molecule `C[C@H](NC(=O)N(CCCl)N=O)C(=O)Oc1ccc2c(c1)CC[C@@H]1[C@@H]2CC[C@]2(C)[C@@H](O)CC[C@@H]12` [N-(2-chloroethyl)-N-nitroso-carbamoyl-L-alanine-estradiol-3-ester] displayed an optimal dose in the data set with rat leukemia L 5222 of 279 mg/kg. In the data set with rat leukemia L 5222 (optimal dose 279 mg/kg), this molecule had a cures of 2 cures and a median survival time of 49 days. Also, on estrogen receptor, the pIC50 (commonly the negative decadic logarithm of the IC50, by convention in mol/L) is 7.30 and the “affinity relative to estradiol (100%)” value was found to be 16%.
As for `C[C@H](NC(=O)N(CCCl)N=O)C(=O)O` [CNU alanine, reference compound], in the data set on rat leukemia L 5222 (equimolar dose with cortisone), the cures entry is given as “no cures” and the median survival time was determined as 20 days. For the same molecule, the median lethal dose (LD50) at 2160 h in data set [1] lay within 40 to 50 mg/kg.
In the case of `C[C@H](NC(=O)N(CCCl)N=O)C(=O)Oc1ccc2c(c1)CC[C@@H]1[C@@H]2CC[C@]2(C)C(=O)CC[C@@H]12` [N-(2-chloroethyl)-N-nitroso-carbamoyl-L-alanine-estrone-ester], the optimal dose in the data set with rat leukemia L 5222 worked out at 351 mg/kg. Moreover, the “toxicity measured in tumor-bearing animals” value in the data set with rat leukemia L 5222 (compared with the cortisone derivative) is reported as “even lower than with the cortisone derivative”. Further, the “total median (survival)” value in the data set with rat leukemia L 5222 (optimal dose 351 mg/kg) is 43 days. For the same molecule, on estrogen receptor, the negative logarithm of the IC50 (pIC50) was 6.72 and the “affinity relative to estradiol (100%)” value is on record as 4%.
